What was measured:
MBP-eAPP230-624 = biological target: T1, MBP-eAPP230-624 (Homo sapiens, UniProt P05067); assay: Small-angle X-ray scattering of MBP-eAPP230-624 incubated with compound; format: binding; settings: for Dmax (Å) ± 10 / MWcalc/MWseq ± 0.2 / Rg (Å) ± 2 / binding to MBP-eAPP230-624 / APP and effect on conformation or dimerization: 50 μM compound; for Dmax (Å) ± 10 / MWcalc/MWseq ± 0.2 / Rg (Å) ± 2: MBP-eAPP230-624, 4° C., 1 hour; for binding to MBP-eAPP230-624 / APP and effect on conformation or dimerization: small-angle X-ray scattering
T1 construct: 100 μg of purified MBP-eAPP230-624 were incubated with 50 μM Disulfuram
T1 sequence (P05067 230-624 isoform P05067-4): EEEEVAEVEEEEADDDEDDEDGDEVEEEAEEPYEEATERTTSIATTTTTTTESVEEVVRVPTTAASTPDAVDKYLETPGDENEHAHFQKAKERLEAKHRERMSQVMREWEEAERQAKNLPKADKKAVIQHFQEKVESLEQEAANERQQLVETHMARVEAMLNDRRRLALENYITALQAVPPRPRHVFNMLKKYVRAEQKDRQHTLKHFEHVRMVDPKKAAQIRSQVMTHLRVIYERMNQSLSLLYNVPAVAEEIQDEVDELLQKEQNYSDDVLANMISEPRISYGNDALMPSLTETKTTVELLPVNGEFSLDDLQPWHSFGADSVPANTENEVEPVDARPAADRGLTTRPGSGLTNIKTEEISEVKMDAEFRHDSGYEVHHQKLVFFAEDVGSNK
Procedure: X-ray scattering data collection: To 100 μg of purified MBP-eAPP230-624 were incubated with 50 μM Disulfuram or 50 μM Sulfiram in 20 mM sodium phosphate pH 7.4, 137 mM sodium chloride, 0.05% dimethyl sulfoxide at 4° C. for 1 hour. The control sample was incubated in the buffer alone. The samples were then concentrated to approximately 1.5 mg/ml using […] NML concentrators. Small-angle X-ray scattering data were collected using protein concentrations in the range of 0.25-1.5 mg/ml and an X-ray wavelength of 1.11 Å at beam line 12.3.1 (Advanced Light Source). Samples of the filtrate were used for buffer subtraction. Data were integrated with software customized for the beam line and processed with the program PRIMUS (Konarev (2003) Journal of Applied Crystallography 36, 1277-1282). The program GNOM (Svergun, (1992) J. Appl. Crystallogr. 25, 495-503) was used to calculate the maximum dimension and the radius of gyration and to estimate the intensity of the scattering at zero angle for higher concentration samples. The molecule weight of each protein was calculated by comparing to the scattering of proteins of known molecule weight.

[1] = Brain uptake testing (PK): plasma and brain levels by LC/MS/MS; parameters: species or system mice; settings: mouse, in vivo, sc
Procedure: Brain uptake testing (PK): In general, CNS exposure studies consisted of collection of heparinized plasma and brains after treatment with tropisetron, nimetazepam, disulfuram and honokiol following subcutaneous (sc) administration of the molecules at 10 mg/kg. Plasma and brain levels of the compounds were determined by quantitative LC/MS/MS methodology, conducted at Integrated Analytical Solutions (on the internet at ianalytical.net). Plasma samples were precipitated with acetonitrile:methanol (1:1) cocktail containing an internal standard. The brain samples were homogenized directly in ethylacetate or extracted from 5M guanidine homogenates using the liquid-liquid method. The resulting supernatant were evaporated to dryness and subjected to the LC/MS/MS analysis. For each compound 3 mice were used for analysis. The brain-to-plasma ratios and brain levels were then be calculated to identify the best candidate(s) for further testing.

APP = assay: sAPPα, Aβ40 and Aβ42 levels in brain (PD) of APP transgenic (PDAPP) mice; format: in vivo; settings: Tg mice; for sAPPα levels in hippocampus (Hip) and entorhinal cortex (ECx) / Aβ40 levels / Aβ42 levels: 10 mpk sc, 5 days
Procedure: […] Analysis: […]® kits from Perkin Elmer (PE) were used to quantify sAPPα (cat#: AL254C), sAPPβ (cat#: AL232C), Aβ40 (cat #: AL275C), Aβ42 (cat#: AL276C) and Tau (cat#: AL271C) from brain homogenates. The samples are added to an AlphaPlate-384 (cat#: 6005350). Twenty microliters (μl) of acceptor bead antibody mix was added to each five μl cerebrospinal fluid (CSF) sample and allowed to incubate for one hour at room temperature. Next, 25 μl of donor beads were added and allowed to incubate in the dark for 30 minutes at room temperature. Fluorescence was then measured on an EnsPire 96-well plate reader (Perkin-Elmer).
ELISA assays: ELISA kits from Invitrogen were also used to quantify Aβ1-40 (KHB3481) and Aβ1-42 (KHB3544) in duplicate from the CSF samples stored at −80° C. For assay, samples were thawed on ice and BSL-2 precautions practiced at all times. For the human Aβ 1-42 ultrasensitive ELISA, samples were diluted 1:2 (50 μl CSF plus 50 μl kit-provided standard diluent buffer). For the human Aβ1-40 ELISA, samples were diluted 1:15 (6.7 μl CSF plus […] of standard diluent buffer). Assays were performed according to manufacturer's instructions. In short, standards and samples were added to a plate pre-coated with a monoclonal capture antibody specific for the amino terminus of Hu Aβ. The samples were co-incubated with a rabbit detection antibody (Ab) specific for the carboxy terminus of the Aβ species being assayed for 3 hr at room temperature (Aβ 1-40) to overnight at 4° (Aβ 1-42) with gentle rocking After washing, bound rabbit Ab was detected using a horseradish peroxidase-labeled anti-rabbit secondary Ab. After washing again, bound HRP-anti rabbit Ab was detected colorimetrically (Spectramax 190, Molecular Devices) by the addition of a substrate solution. 1 mM 4-(2-Aminoethyl)benzenesulfonyl fluoride hydrochloride (AEBSF) protease inhibitor (101500, Calbiochem) was added to standards and samples.
In case of tropisetron the testing was done at 0.3 mpk, while in case of the other compounds (e.g., nimetazepam, disulfuram and honokiol) it was done at 10 mpk. From the collected brains the hippocampi were dissected. Levels of sAPPα, and Aβ1-40, Aβ1-42 and APPneo were measured by […] assay ([…] Perkin-Elmer), and Aβ1-40, Aβ1-42 (Invitrogen, sensitive ELISA kit) in brain homogenates of Tg mice. All procedures involved have been described (Galavan 2006, Proc Natl Acad Sci USA, 103, 7130-7135). […] The brain-to-plasma ratio (PK) of tropisetron and sAPPalpha/Aβ42 ratios (PD) were then determined.

[2] = tested on: 7 W cells stably transfected with APP; assay: […] sAPPα assay in 7 W APP transfected cells; format: cell-based; settings: 7 W CHO cells, 1 μM compound, 24 h
Procedure: In vitro compound testing assay: 7 W CHO cells were seeded at 50,000 cells/well in a 96 wells plate for 24 h. Then their medium was changed for fresh medium supplemented with 1 μM compounds (e.g., tropisetron, disulfuram, honokiol, and/or nimetazepam). After 24 h, 20 μl of the medium was added to 2 μl of the complete protease inhibitor with 1 μM EDTA and kept at 4° C. until analysis. 2 μl of that medium was treated with the Perkin Elmer (PE) […]® Aβ kit to determine the amount of Aβ42 secreted by the cells in 24 h using the PE-Enspire reader. Another aliquot of 2 μl of the medium was diluted with 50 μl of the PE […]® buffer and was treated with the PE […]® sAPPα kit to determine the amount of sAPPα secreted by the cells in 24 h. For the assay, 2 μl of the final mixture was treated with the acceptor bead and the donor antibody followed by addition of the donor beads and the […]® signal was measured using a PE-Enspire reader. For measurement of APPneo, the 50,000 cells were treated after seeding with fresh medium supplemented with or without the compound, but without fetal bovine serum (FBS), in order to induce the formation of the APPneo fragment. […]

[3] = Degradation in brain tissue; format: in vitro ADME
[4] = stated as known for the benzodiazepine; cited from earlier work

SMILES	Dmax (Å) ± 10 (MBP-eAPP230-624) [Å]	MWcalc/MWseq ± 0.2 (MBP-eAPP230-624)	Rg (Å) ± 2 (MBP-eAPP230-624) [Å]	binding affinity relative to sulfuram (MBP-eAPP230-624; inferred from greater effect in X-ray scattering)	binding to MBP-eAPP230-624 / APP and effect on conformation or dimerization (MBP-eAPP230-624; listed as Disulfuram)	binding to MBP-eAPP230-624 / APP and effect on conformation or dimerization (MBP-eAPP230-624; listed as disulfuram)	blood-brain-barrier / brain penetration [1]	Aβ levels (APP; 10 mpk)	sAPPα levels in hippocampus (Hip) and entorhinal cortex (ECx) (APP)	sAPPα levels secreted by cells [2]	stability in brain tissue [3]	blood-brain-barrier penetration (known) [4]	Aβ40 levels (APP)	Aβ42 levels (APP)	sAPPα levels in hippocampus (Hip) and entorhinal cortex (ECx) (APP; 10 mg/kg)	sAPPα levels in hippocampus (Hip) and entorhinal cortex (ECx) (APP; listed as nimetazepam, 10 mg/kg)	binding to MBP-eAPP230-624 / APP and effect on conformation or dimerization (MBP-eAPP230-624)
CCN(CC)C(=S)SSC(=S)N(CC)CC [Disulfiram, 1,1′,1″,1′″-[disulfanediylbis(carbonothioylnitrilo)]tetraethane]	160	1.5	51	higher binding affinity	can bind to APP and disrupt APP dimerization	bind to MBP-eAPP230-624 and alter the conformation of the protein	low blood-brain-barrier penetration	no changes	no changes	increase	degrades rapidly in brain tissue	–	–	–	–	–	–
CN1C(=O)CN=C(c2ccccc2)c2cc([N+](=O)[O-])ccc21 [Nimetazepam, 2-methyl-9-nitro-6-phenyl-2,5-diazabicyclo[5.4.0] undeca-5,8,10,12-tetraen-3-one]	–	–	–	–	–	–	–	–	–	–	–	cross the blood-brain-barrier well	No significant changes	No significant changes	significant increase	increase	–
CCN(CC)C(=S)SC(=S)N(CC)CC [Sulfiram]	170	1.7	53	–	–	–	–	–	–	–	–	–	–	–	–	–	bind to MBP-eAPP230-624 and alter the conformation of the protein
C=CCc1ccc(O)c(-c2ccc(O)c(CC=C)c2)c1 [honokiol, 2-(4-hydroxy-3-prop-2-enyl-phenyl)-4-prop-2-enyl-phenol]	–	–	–	–	–	–	penetrates the brain well	–	no significant increase	–	–	–	No significant changes	No significant changes	–	–	–

From patent US10449177B2, “Methods of treating mild cognitive impairment (MCI) and related disorders” (Buck Institute for Research on Aging, priority 2010, dated 2019)
